Laboratory results published in patent US7973061B2, “Anaplastic lymphoma kinase modulators and methods of use” (Exelixis, Inc., priority 2004, dated 2011).

Biological target: T1, ALK (baculovirus expressed human ALK kinase domain F1098-K1410) (Homo sapiens, UniProt Q9UM73)
T1 construct: human ALK kinase domain F1098-K1410; made in house
Assay: biochemical
Conditions: 1 μM ATP, 4 μM poly-AEKY, 12 nM ALK, 2 hours at ambient temperature; read-out: ALK IC50
Method in brief: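 Inhibitors were tested at 10 concentrations, and IC50 was derived from a sigmoidal fit (Min, Max, Hill slope). Kinase activity was measured as percent ATP left after a 2 h reaction at room temperature, detected by luciferase-luciferin chemiluminescence. The ATP level was set close to KM for the ALK kinase domain F1098-K1410.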

T1 sequence (Q9UM73 1098-1410): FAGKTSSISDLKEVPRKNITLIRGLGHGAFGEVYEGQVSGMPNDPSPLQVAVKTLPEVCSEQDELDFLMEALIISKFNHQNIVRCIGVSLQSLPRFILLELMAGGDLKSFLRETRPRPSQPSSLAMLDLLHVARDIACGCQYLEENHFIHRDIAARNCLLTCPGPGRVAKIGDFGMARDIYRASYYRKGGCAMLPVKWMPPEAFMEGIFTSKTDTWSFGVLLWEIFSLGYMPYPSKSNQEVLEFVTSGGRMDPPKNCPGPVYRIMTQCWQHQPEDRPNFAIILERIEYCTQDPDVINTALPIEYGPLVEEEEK

SMILES	IC50 [µM]
O=C(COc1ccc(OC(F)(F)F)cc1)NCc1nc(C(=O)NCc2ccc(F)cc2C(F)(F)F)cs1 [Entry 244, N-{[4-fluoro-2-(trifluoromethyl)phenyl]methyl}-2-({[({4-[(trifluoromethyl)oxy]phenyl}oxy)acetyl]amino}methyl)-1,3-thiazole-4-carboxamide]	0.5 to 2
CCCC1CCN(C(=O)c2csc(CNC(=O)COc3ccc(OC(F)(F)F)cc3)n2)CC1 [Entry 245, N-({4-[(4-propylpiperidin-1-yl)carbonyl]-1,3-thiazol-2-yl}methyl)-2-({4-[(trifluoromethyl)oxy]phenyl}oxy)acetamide]	0.5 to 2
O=C(COc1ccc(OC(F)(F)F)cc1)NCc1nc(C(=O)NCCc2ccc(Cl)cc2)co1 [Entry 246, N-[2-(4-chlorophenyl)ethyl]-2-({[({4-[(trifluoromethyl)oxy]phenyl}oxy)acetyl]amino}methyl)-1,3-oxazole-4-carboxamide]	0.5 to 2
CN1CCCC1CCNC(=O)c1csc(CNC(=O)COc2ccc(OC(F)(F)F)cc2)n1 (centres unmarked) [Entry 247, N-[2-(1-methylpyrrolidin-2-yl)ethyl]-2-({[({4-[(trifluoromethyl)oxy]phenyl}oxy)acetyl]amino}methyl)-1,3-thiazole-4-carboxamide]	0.5 to 2
CCCCOc1ccc(NC(=O)NCc2nc(C(=O)NCc3cccc(OC)c3OC)cs2)cc1 [Entry 248, N-{[2,3-bis(methyloxy)phenyl]methyl}-2-{[({[4-(butyloxy)phenyl]amino}carbonyl)amino]methyl}-1,3-thiazole-4-carboxamide]	0.5 to 2
O=C(COc1ccc(OC(F)(F)F)cc1)NCc1nc(C(=O)NCc2ccco2)cs1 [Entry 249, N-(furan-2-ylmethyl)-2-({[({4-[(trifluoromethyl)oxy]phenyl}oxy)acetyl]amino}methyl)-1,3-thiazole-4-carboxamide]	0.5 to 2
CCOc1cc(CCNC(=O)c2coc(CNC(=O)COc3ccc(OC(F)(F)F)cc3)n2)ccc1OC [Entry 250, N-{2-[3-(ethyloxy)-4-(methyloxy)phenyl]ethyl}-2-({[({4-[(trifluoromethyl)oxy]phenyl}oxy)acetyl]amino}methyl)-1,3-oxazole-4-carboxamide]	0.5 to 2
O=C(COc1ccc(OC(F)(F)F)cc1)NCc1nc(C(=O)NCCc2c[nH]c3ccccc23)co1 [Entry 251, N-[2-(1H-indol-3-yl)ethyl]-2-({[({4-[(trifluoromethyl)oxy]phenyl}oxy)acetyl]amino}methyl)-1,3-oxazole-4-carboxamide]	0.5 to 2
O=C(COc1ccc(OC(F)(F)F)cc1)NCc1nc(C(=O)N2CCCC3CCCCC32)cs1 (centres unmarked) [Entry 252, N-{[4-(octahydroquinolin-1(2H)-ylcarbonyl)-1,3-thiazol-2-yl]methyl}-2-({4-[(trifluoromethyl)oxy]phenyl}oxy)acetamide]	0.5 to 2
CC1CN(C(=O)c2csc(CNC(=O)COc3ccc(OC(F)(F)F)cc3)n2)CCN1c1ccccc1 (centres unmarked) [Entry 253, N-({4-[(3-methyl-4-phenylpiperazin-1-yl)carbonyl]-1,3-thiazol-2-yl}methyl)-2-({4-[(trifluoromethyl)oxy]phenyl}oxy)acetamide]	0.5 to 2
CC(C)(C)OC(=O)NC1CCN(C(=O)c2csc(CNC(=O)COc3ccc(OC(F)(F)F)cc3)n2)CC1 [Entry 254, 1,1-dimethylethyl(1-{[2-({[({4-[(trifluoromethyl)oxy]phenyl}oxy)acetyl]amino}methyl)-1,3-thiazol-4-yl]carbonyl}piperidin-4-yl)carbamate]	0.5 to 2
C[C@@H]1CN(C(=O)c2csc(CNC(=O)COc3ccc(OC(F)(F)F)cc3)n2)C[C@H](C)O1 [Entry 255, N-[(4-{[(2R,6S)-2,6-dimethylmorpholin-4-yl]carbonyl}-1,3-thiazol-2-yl)methyl]-2-({4-[(trifluoromethyl)oxy]phenyl}oxy)acetamide]	0.5 to 2
COc1cccc(CNC(=O)c2csc(CNC(=O)Cc3ccc4ccccc4c3)n2)c1OC [Entry 256, N-{[2,3-bis(methyloxy)phenyl]methyl}-2-{[(naphthalen-2-ylacetyl)amino]methyl}-1,3-thiazole-4-carboxamide]	0.5 to 2
CC1CCCCC1NC(=O)c1coc(CNC(=O)COc2ccc(OC(F)(F)F)cc2)n1 (centres unmarked) [Entry 257, N-(2-methylcyclohexyl)-2-({[({4-[(trifluoromethyl)oxy]phenyl}oxy)acetyl]amino}methyl)-1,3-oxazole-4-carboxamide]	0.5 to 2
O=C(COc1ccc(OC(F)(F)F)cc1)NCc1nc(C(=O)NCc2ccc(F)cc2F)cs1 [Entry 258, N-[(2,4-difluorophenyl)methyl]-2-({[({4-[(trifluoromethyl)oxy]phenyl}oxy)acetyl]amino}methyl)-1,3-thiazole-4-carboxamide]	0.5 to 2
CC(CNC(=O)c1coc(CNC(=O)COc2ccc(OC(F)(F)F)cc2)n1)c1ccccc1 (centres unmarked) [Entry 259, N-(2-phenylpropyl)-2-({[({4-[(trifluoromethyl)oxy]phenyl}oxy)acetyl]amino}methyl)-1,3-oxazole-4-carboxamide]	0.5 to 2

SMILES	IC50 [µM]
O=C(COc1ccc(OC(F)(F)F)cc1)NCc1nc(C(=O)NCCC(c2ccccc2)c2ccccc2)cs1 [Entry 260, N-(3,3-diphenylpropyl)-2-({[({4-[(trifluoromethyl)oxy]phenyl}oxy)acetyl]amino}methyl)-1,3-thiazole-4-carboxamide]	0.5 to 2
O=C(COc1ccc(OC(F)(F)F)cc1)NCc1nc(C(=O)NCc2ccccc2Cl)co1 [Entry 261, N-[(2-chlorophenyl)methyl]-2-({[({4-[(trifluoromethyl)oxy]phenyl}oxy)acetyl]amino}methyl)-1,3-oxazole-4-carboxamide]	0.5 to 2
CC(C)CCC(C)NC(=O)c1csc(CNC(=O)COc2ccc(OC(F)(F)F)cc2)n1 (centres unmarked) [Entry 262, N-(1,4-dimethylpentyl)-2-({[({4-[(trifluoromethyl)oxy]phenyl}oxy)acetyl]amino}methyl)-1,3-thiazole-4-carboxamide]	0.5 to 2
COc1ccccc1CNC(=O)c1csc(CNC(=O)COc2ccc(Cl)cc2)n1 [Entry 263, 2-[({[(4-chlorophenyl)oxy]acetyl}amino)methyl]-N-{[2-(methyloxy)phenyl]methyl}-1,3-thiazole-4-carboxamide]	0.5 to 2
C[C@H](NC(=O)c1coc(CNC(=O)COc2ccc(OC(F)(F)F)cc2)n1)C1CCCCC1 [Entry 264, N-[(1S)-1-cyclohexylethyl]-2-({[({4-[(trifluoromethyl)oxy]phenyl}oxy)acetyl]amino}methyl)-1,3-oxazole-4-carboxamide]	0.5 to 2
O=C(COc1ccc(OC(F)(F)F)cc1)NCc1nc(C(=O)NCC2CCCO2)cs1 (centres unmarked) [Entry 265, N-(tetrahydrofuran-2-ylmethyl)-2-({[({4-[(trifluoromethyl)oxy]phenyl}oxy)acetyl]amino}methyl)-1,3-thiazole-4-carboxamide]	0.5 to 2
O=C(COc1ccc(OC(F)(F)F)cc1)NCc1nc(C(=O)N2CC[C@H]3CCCC[C@@H]3C2)cs1 [Entry 266, N-({4-[(4aR,8aS)-octahydroisoquinolin-2(1H)-ylcarbonyl]-1,3-thiazol-2-yl}methyl)-2-({4-[(trifluoromethyl)oxy]phenyl}oxy)acetamide]	0.5 to 2
O=C(COc1ccc(OC(F)(F)F)cc1)NCc1nc(C(=O)NCCCN2CCOCC2)cs1 [Entry 267, N-(3-morpholin-4-ylpropyl)-2-({[({4-[(trifluoromethyl)oxy]phenyl}oxy)acetyl]amino}methyl)-1,3-thiazole-4-carboxamide]	0.5 to 2
COCC(C)NC(=O)c1csc(CNC(=O)COc2ccc(OC(F)(F)F)cc2)n1 (centres unmarked) [Entry 268, N-[1-methyl-2-(methyloxy)ethyl]-2-({[({4-[(trifluoromethyl)oxy]phenyl}oxy)acetyl]amino}methyl)-1,3-thiazole-4-carboxamide]	0.5 to 2
COCCCNC(=O)c1csc(CNC(=O)COc2ccc(OC(F)(F)F)cc2)n1 [Entry 269, N-[3-(methyloxy)propyl]-2-({[({4-[(trifluoromethyl)oxy]phenyl}oxy)acetyl]amino}methyl)-1,3-thiazole-4-carboxamide]	0.5 to 2
CCN(CC)C(=O)C1CCCN(C(=O)c2csc(CNC(=O)COc3ccc(OC(F)(F)F)cc3)n2)C1 (centres unmarked) [Entry 270, N,N-diethyl-1-{[2-({[({4-[(trifluoromethyl)oxy]phenyl}oxy)acetyl]amino}methyl)-1,3-thiazol-4-yl]carbonyl}piperidine-3-carboxamide]	0.5 to 2
O=C(COc1ccc(OC(F)(F)F)cc1)NCc1nc(C(=O)N2CC[C@@H]3CCCC[C@@H]3C2)cs1 [Entry 271, N-({4-[(4aS,8aS)-octahydroisoquinolin-2(1H)-ylcarbonyl]-1,3-thiazol-2-yl}methyl)-2-({4-[(trifluoromethyl)oxy]phenyl}oxy)acetamide]	0.5 to 2
NC(=O)C1CCN(C(=O)c2csc(CNC(=O)COc3ccc(OC(F)(F)F)cc3)n2)CC1 [Entry 272, 1-{[2-({[({4-[(trifluoromethyl)oxy]phenyl}oxy)acetyl]amino}methyl)-1,3-thiazol-4-yl]carbonyl}piperidine-4-carboxamide]	0.5 to 2
O=C(COc1ccc(OC(F)(F)F)cc1)NCc1nc(C(=O)NCCc2ccccc2Cl)co1 [Entry 273, N-[2-(2-chlorophenyl)ethyl]-2-({[({4-[(trifluoromethyl)oxy]phenyl}oxy)acetyl]amino}methyl)-1,3-oxazole-4-carboxamide]	0.5 to 2
O=C(COc1ccc(OC(F)(F)F)cc1)NCc1nc(C(=O)NCCN2CCCC2)cs1 [Entry 274, N-(2-pyrrolidin-1-ylethyl)-2-({[({4-[(trifluoromethyl)oxy]phenyl}oxy)acetyl]amino}methyl)-1,3-thiazole-4-carboxamide]	0.5 to 2
CCN1CCCC1CNC(=O)c1csc(CNC(=O)COc2ccc(OC(F)(F)F)cc2)n1 (centres unmarked) [Entry 275, N-[(1-ethylpyrrolidin-2-yl)methyl]-2-({[({4-[(trifluoromethyl)oxy]phenyl}oxy)acetyl]amino}methyl)-1,3-thiazole-4-carboxamide]	0.5 to 2
